Patent publication US20130338106A1, “COMPOUNDS INHIBITING LEUCINE-RICH REPEAT KINASE ENZYME ACTIVITY” (priority 2011, published 2013)

Biological target: T1, LRRK2 G2019S mutant kinase (Homo sapiens, UniProt Q5S007, G2019S)
T1 construct: GST; purchased Invitrogen PV4882
Assay: LRRK2 G2019S LanthaScreen TR-FRET kinase assay
Format: biochemical
Conditions: LRRK2 G2019S GST-tagged protein, 100 μM ATP, LRRKtide substrate; read-out: IC50 (potency)
Description: Activity of compounds against LRRK2 G2019S mutant kinase function was tested in a LANTHAScreen® assay as follows: Compounds were diluted in 100% DMSO to the desired test concentrations in white, low-volume 384-well plates (PerkinElmer ProxiPlate® PN: 6008280). TR-FRET kinase reactions (10 μL) were performed with 75 nM Fluorescein-ERM (LRRKtide, Invitrogen, PN:PV4901) substrate in a final assay buffer containing 100 μM ATP and 2 mM DTT diluted in commercially available Kinase Buffer S (Invitrogen PN: PV5213). The final solvent concentration in the assay was 1% DMSO. Reactions were initiated with the addition of 10 ng/well of LRRK2 02019S, GST-tagged protein (Invitrogen PN: PV4882). After incubation of the foil sealed reaction plates at room temperature with low speed mixing for 1 hour, the kinase reaction was stopped and the amount of substrate phosphorylation was detected by addition of 10 μL of 10 mM EDTA and 2 nM Tb-anti-pERM (pLRRKtide antibody, Invitrogen, PN: PV4898) antibody in TR-FRET dilution buffer (Invitrogen PN: PV3574). After a 30 minute incubation at room temperature with low speed mixing, foil seals were removed and measurements were obtained on a PerkinElmer EnVision with excitation 340 nm, emission 520 nm (channel 1): 495 nm (channel 2) settings. Generation of raw data and workup of data to derive the IC50 (potency) and maximal inhibition at concentrations tested were performed using Merck's Assay Data Analyzer (ADA) software.

T1 sequence (Q5S007 whole entry G2019S): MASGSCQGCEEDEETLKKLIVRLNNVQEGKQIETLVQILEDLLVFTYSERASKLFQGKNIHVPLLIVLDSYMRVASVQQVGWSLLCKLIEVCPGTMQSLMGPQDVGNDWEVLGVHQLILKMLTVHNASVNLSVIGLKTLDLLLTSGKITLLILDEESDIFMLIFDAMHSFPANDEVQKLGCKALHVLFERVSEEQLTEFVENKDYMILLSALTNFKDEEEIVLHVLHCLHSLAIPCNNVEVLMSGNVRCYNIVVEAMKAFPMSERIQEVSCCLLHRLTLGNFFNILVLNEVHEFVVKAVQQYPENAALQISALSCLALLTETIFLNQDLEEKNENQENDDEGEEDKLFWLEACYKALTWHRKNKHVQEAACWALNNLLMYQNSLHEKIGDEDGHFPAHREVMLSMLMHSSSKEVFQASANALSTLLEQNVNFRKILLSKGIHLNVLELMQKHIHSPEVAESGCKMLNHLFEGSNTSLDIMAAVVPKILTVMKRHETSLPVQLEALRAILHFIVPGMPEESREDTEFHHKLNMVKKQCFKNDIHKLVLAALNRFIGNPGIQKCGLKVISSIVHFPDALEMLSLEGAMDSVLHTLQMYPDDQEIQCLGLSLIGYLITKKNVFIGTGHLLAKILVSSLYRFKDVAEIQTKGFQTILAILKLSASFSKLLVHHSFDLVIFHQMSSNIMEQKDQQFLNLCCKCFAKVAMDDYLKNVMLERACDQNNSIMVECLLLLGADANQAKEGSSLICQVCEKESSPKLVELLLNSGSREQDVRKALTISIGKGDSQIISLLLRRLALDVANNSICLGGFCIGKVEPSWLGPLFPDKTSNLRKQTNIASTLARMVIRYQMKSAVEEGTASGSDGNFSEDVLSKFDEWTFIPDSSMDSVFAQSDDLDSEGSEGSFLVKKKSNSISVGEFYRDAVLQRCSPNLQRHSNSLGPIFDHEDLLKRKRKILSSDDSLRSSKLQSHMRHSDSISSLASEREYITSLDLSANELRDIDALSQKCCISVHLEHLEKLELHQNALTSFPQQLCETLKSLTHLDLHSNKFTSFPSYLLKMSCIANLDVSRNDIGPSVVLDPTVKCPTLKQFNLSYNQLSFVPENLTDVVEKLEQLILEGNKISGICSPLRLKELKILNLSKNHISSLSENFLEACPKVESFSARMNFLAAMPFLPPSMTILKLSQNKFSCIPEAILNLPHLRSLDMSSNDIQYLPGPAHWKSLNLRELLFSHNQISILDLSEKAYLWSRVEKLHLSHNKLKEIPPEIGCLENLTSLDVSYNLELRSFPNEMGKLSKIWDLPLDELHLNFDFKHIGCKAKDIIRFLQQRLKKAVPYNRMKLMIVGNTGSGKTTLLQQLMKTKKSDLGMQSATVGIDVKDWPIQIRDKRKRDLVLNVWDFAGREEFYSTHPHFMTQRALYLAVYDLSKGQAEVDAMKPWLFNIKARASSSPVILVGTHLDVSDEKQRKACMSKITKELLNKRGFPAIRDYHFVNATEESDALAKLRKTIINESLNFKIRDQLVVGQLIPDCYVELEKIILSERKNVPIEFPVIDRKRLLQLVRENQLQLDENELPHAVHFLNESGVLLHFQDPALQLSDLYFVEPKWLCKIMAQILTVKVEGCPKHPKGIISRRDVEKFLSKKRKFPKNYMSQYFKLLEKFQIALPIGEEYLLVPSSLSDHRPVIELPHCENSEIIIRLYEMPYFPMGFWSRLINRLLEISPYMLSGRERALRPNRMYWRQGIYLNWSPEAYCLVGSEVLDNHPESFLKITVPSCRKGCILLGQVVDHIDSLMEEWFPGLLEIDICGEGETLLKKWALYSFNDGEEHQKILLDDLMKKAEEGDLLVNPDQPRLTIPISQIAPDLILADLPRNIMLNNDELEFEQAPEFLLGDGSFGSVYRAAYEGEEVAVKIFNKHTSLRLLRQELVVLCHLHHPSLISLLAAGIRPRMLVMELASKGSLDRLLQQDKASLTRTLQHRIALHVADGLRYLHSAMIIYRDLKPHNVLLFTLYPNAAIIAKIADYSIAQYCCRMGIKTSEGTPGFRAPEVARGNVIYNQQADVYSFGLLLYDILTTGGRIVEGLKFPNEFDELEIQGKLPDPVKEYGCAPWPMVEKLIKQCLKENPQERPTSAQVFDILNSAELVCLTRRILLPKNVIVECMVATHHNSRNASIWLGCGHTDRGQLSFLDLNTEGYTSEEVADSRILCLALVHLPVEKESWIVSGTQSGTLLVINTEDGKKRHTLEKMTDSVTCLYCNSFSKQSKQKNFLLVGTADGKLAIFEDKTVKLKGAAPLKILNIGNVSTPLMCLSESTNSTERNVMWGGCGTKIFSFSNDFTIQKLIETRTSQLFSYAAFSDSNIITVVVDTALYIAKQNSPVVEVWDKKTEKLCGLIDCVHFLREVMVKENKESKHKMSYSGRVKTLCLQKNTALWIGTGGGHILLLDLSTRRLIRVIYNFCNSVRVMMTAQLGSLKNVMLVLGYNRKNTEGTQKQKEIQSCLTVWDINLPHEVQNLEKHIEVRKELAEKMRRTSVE

| SMILES | IC50 [nM] |
| --- | --- |
| CC1(C)CC(=O)c2c(SC3CCCC3)sc(-c3ccn(C(=O)NCc4ccccc4)n3)c2C1 [Example 60, N-benzyl-3-[3-(Cyclopentylsulfanyl)-6,6-dimethyl-4-oxo-4,5,6,7-tetrahydro-2-benzothiophen-1-yl]-1H-pyrazole-1-carboxamide] | 520 |
| CSc1cccc(NC(=O)n2ccc(-c3sc(SC4CCCC4)c4c3CC(C)(C)CC4=O)n2)c1 [Example 61, 3-[3-(Cyclopentylsulfanyl)-6,6-dimethyl-4-oxo-4,5,6,7-tetrahydro-2-benzothiophen-1-yl]-N-[3-(methylsulfanyl)phenyl]-1H-pyrazole-1-carboxamide] | 110 |
| CC1(C)CC(=O)c2c(SC3CCCC3)sc(-c3ccn(C(=O)Nc4ccc(Cl)cc4)n3)c2C1 [Example 62, N-(4-Chlorophenyl)-3-[3-(cyclopentylsulfanyl)-6,6-dimethyl-4-oxo-4,5,6,7-tetrahydro-2-benzothiophen-1-yl]-1H-pyrazole-1-carboxamide] | 86 |
| CC1(C)CC(=O)c2c(SC3CCCC3)sc(-c3ccn(C(=O)Nc4ccc5ccccc5c4)n3)c2C1 [Example 63, 3-[3-(Cyclopentylsulfanyl)-6,6-dimethyl-4-oxo-4,5,6,7-tetrahydro-2-benzothiophen-1-yl]-N-(naphthalen-2-yl)-1H-pyrazole-1-carboxamide] | 110 |
| CC1(C)CC(=O)c2c(SC3CCCC3)sc(-c3ccn(C(=O)Nc4ccc(C#N)cc4)n3)c2C1 [Example 64, N-(4-Cyanophenyl)-3-[3-(cyclopentylsulfanyl)-6,6-dimethyl-4-oxo-4,5,6,7-tetrahydro-2-benzothiophen-1-yl]-1H-pyrazole-1-carboxamide] | 85 |
| CC1(C)CC(=O)c2c(SC3CCCC3)sc(-c3ccn(C(=O)NC4CCN(C(=O)C(F)(F)F)CC4)n3)c2C1 [Example 65, 3-[3-(Cyclopentylsulfanyl)-6,6-dimethyl-4-oxo-4,5,6,7-tetrahydro-2-benzothiophen-1-yl]-N-[1-(trifluoroacetyl)piperidin-4-yl]-1H-pyrazole-1-carboxamide] | 330 |
| COc1ccccc1NC(=O)n1ccc(-c2sc(SC3CCCC3)c3c2CC(C)(C)CC3=O)n1 [Example 66, 3-[3-(Cyclopentylsulfanyl)-6,6-dimethyl-4-oxo-4,5,6,7-tetrahydro-2-benzothiophen-1-yl]-N-(2-methoxyphenyl)-1H-pyrazole-1-carboxamide] | 110 |
| CC1(C)CC(=O)c2c(SC3CCCC3)sc(-c3ccn(C(=O)Nc4cccc(Cl)c4)n3)c2C1 [Example 67, N-(3-Chlorophenyl)-3-[3-(cyclopentylsulfanyl)-6,6-dimethyl-4-oxo-4,5,6,7-tetrahydro-2-benzothiophen-1-yl]-1H-pyrazole-1-carboxamide] | 330 |
| CC1(C)CC(=O)c2c(SC3CCCC3)sc(-c3ccn(C(=O)Nc4cccc(C#N)c4)n3)c2C1 [Example 68, N-(3-Cyanophenyl)-3-[3-(cyclopentylsulfanyl)-6,6-dimethyl-4-oxo-4,5,6,7-tetrahydro-2-benzothiophen-1-yl]-1H-pyrazole-1-carboxamide] | 130 |
| CC1(C)CC(=O)c2c(SC3CCCC3)sc(-c3ccn(C(=O)NCCc4ccccc4)n3)c2C1 [Example 69, 3-[3-(Cyclopentylsulfanyl)-6,6-dimethyl-4-oxo-4,5,6,7-tetrahydro-2-benzothiophen-1-yl]-N-(2-phenylethyl)-1H-pyrazole-1-carboxamide] | 4200 |
| CC1(C)CC(=O)c2c(SC3CCCC3)sc(-c3ccn(C(=O)NC(C)(C)C)n3)c2C1 [Example 70, N-tert-Butyl-3-[3-(cyclopentylsulfanyl)-6,6-dimethyl-4-oxo-4,5,6,7-tetrahydro-2-benzothiophen-1-yl]-1H-pyrazole-1-carboxamide] | 1300 |
| CCC(C)NC(=O)n1ccc(-c2sc(SC3CCCC3)c3c2CC(C)(C)CC3=O)n1 (stereo not shown) [Example 71, N-(Butan-2-yl)-3-[3-(cyclopentylsulfanyl)-6,6-dimethyl-4-oxo-4,5,6,7-tetrahydro-2-benzothiophen-1-yl]-1H-pyrazole-1-carboxamide] | 1700 |
| CNC(=O)n1ccc(-c2sc(SC3CCCC3)c3c2CC(C)(C)CC3=O)n1 [Example 72, 3-[3-(Cyclopentylsulfanyl)-6,6-dimethyl-4-oxo-4,5,6,7-tetrahydro-2-benzothiophen-1-yl]-N-methyl-1H-pyrazole-1-carboxamide] | 1700 |
| CC1(C)CC(=O)c2c(NC3CCCC3)sc(-c3ccn(C(=O)Nc4ccc(Cl)cc4)n3)c2C1 [Example 73, N-(4-Chlorophenyl)-3-[3-(cyclopentylamino)-6,6-dimethyl-4-oxo-4,5,6,7-tetrahydro-2-benzothiophen-1-yl]-1H-pyrazole-1-carboxamide] | 280 |
| CC1(C)CC(=O)c2c(NC3CCCC3)sc(-c3ccn(C(=O)Nc4ccc(C#N)cc4)n3)c2C1 [Example 74, N-(4-Cyanophenyl)-3-[3-(cyclopentylamino)-6,6-dimethyl-4-oxo-4,5,6,7-tetrahydro-2-benzothiophen-1-yl]-1H-pyrazole-1-carboxamide] | 190 |
| CC1(C)CC(=O)c2c(NC3CCCC3)sc(-c3ccn(C(=O)Nc4ccncc4)n3)c2C1 [Example 75, 3-[3-(Cyclopentylamino)-6,6-dimethyl-4-oxo-4,5,6,7-tetrahydro-2-benzothiophen-1-yl]-N-(pyridin-4-yl)-1H-pyrazole-1-carboxamide] | 720 |
| CCCC(=O)n1ccc(-c2sc(SC3CCCC3)c3c2CC(C)(C)CC3=O)n1 [Example 76, 1-(1-Butanoyl-1H-pyrazol-3-yl)-3-(cyclopentylsulfanyl)-6,6-dimethyl-6,7-dihydro-2-benzothiophen-4(5H)-one] | 980 |
| CC1(C)CC(=O)c2c(SC3CCCC3)sc(-c3ccn(C(=O)c4ccc(C#N)cc4)n3)c2C1 [Example 77, 4-({3-[3-(Cyclopentylsulfanyl)-6,6-dimethyl-4-oxo-4,5,6,7-tetrahydro-2-benzothiophen-1-yl]-1H-pyrazol-1-yl}carbonyl)benzonitrile] | 260 |
| CC(C)C(=O)n1ccc(-c2sc(SC3CCCC3)c3c2CC(C)(C)CC3=O)n1 [Example 78, 3-(Cyclopentylsulfanyl)-6,6-dimethyl-1-[1-(2-methylpropanoyl)-1H-pyrazol-3-yl]-6,7-dihydro-2-benzothiophen-4(5H)-one] | 1500 |
| CC1(C)CC(=O)c2c(SC3CCCC3)sc(-c3ccn(C(=O)Cc4ccc(Cl)cc4)n3)c2C1 [Example 79, 1-{1-[(4-Chlorophenyl)acetyl]-1H-pyrazol-3-yl}-3-(cyclopentylsulfanyl)-6,6-dimethyl-6,7-dihydro-2-benzothiophen-4(5H)-one] | 600 |
| CC1(C)CC(=O)c2c(SC3CCCC3)sc(-c3ccn(C(=O)c4ccc(Cl)nc4)n3)c2C1 [Example 80, 1-{1-[(6-Chloropyridin-3-yl)carbonyl]-1H-pyrazol-3-yl}-3-(cyclopentylsulfanyl)-6,6-dimethyl-6,7-dihydro-2-benzothiophen-4(5H)-one] | 570 |
| CC1(C)CC(=O)c2c(SC3CCCC3)sc(-c3ccn(C(=O)c4ccc(F)cc4)n3)c2C1 [Example 81, 3-(Cyclopentylsulfanyl)-1-{1-[(4-fluorophenyl)carbonyl]-1H-pyrazol-3-yl}-6,6-dimethyl-6,7-dihydro-2-benzothiophen-4(5H)-one] | 970 |
| COc1ccc(C(=O)n2ccc(-c3sc(SC4CCCC4)c4c3CC(C)(C)CC4=O)n2)cc1 [Example 82, 3-(Cyclopentylsulfanyl)-1-{1-[(4-methoxyphenyl)carbonyl]-1H-pyrazol-3-yl}-6,6-dimethyl-6,7-dihydro-2-benzothiophen-4(5H)-one] | 3400 |
| CC1(C)CC(=O)c2c(SC3CCCC3)sc(-c3ccn(C(=O)C4CCCCC4)n3)c2C1 [Example 83, 1-[1-(Cyclohexylcarbonyl)-1H-pyrazol-3-yl]-3-(cyclopentylsulfanyl)-6,6-dimethyl-6,7-dihydro-2-benzothiophen-4(5H)-one] | 4000 |
| CC1(C)CC(=O)c2c(SC3CCCC3)sc(-c3ccn(C(=O)c4ccc(F)c(F)c4)n3)c2C1 [Example 84, 3-(Cyclopentylsulfanyl)-1-{1-[(3,4-difluorophenyl)carbonyl]-1H-pyrazol-3-yl}-6,6-dimethyl-6,7-dihydro-2-benzothiophen-4(5H)-one] | 400 |
| CSc1sc(-c2ccn(C(=O)OC(C)(C)C)n2)c2c1C(=O)CCC2 [Example 85, tert-Butyl 3-[3-(methylsulfanyl)-4-oxo-4,5,6,7-tetrahydro-2-benzothiophen-1-yl]-1H-pyrazole-1-carboxylate] | 1100 |
| O=C1CCCc2c(-c3ccn(C(=O)Nc4ccc(Cl)cc4)n3)sc(SC3CCCC3)c21 [Example 86, N-(4-chlorophenyl)-3-[3-(cyclopentylsulfanyl)-4-oxo-4,5,6,7-tetrahydro-2-benzothiophen-1-yl]-1H-pyrazole-1-carboxamide] | 66 |
| N#Cc1ccc(NC(=O)n2ccc(-c3sc(NC4CCCC4)c4c3CCCC4=O)n2)cc1 [Example 87, N-(4-cyanophenyl)-3-[3-(cyclopentylamino)-4-oxo-4,5,6,7-tetrahydro-2-benzothiophen-1-yl]-1H-pyrazole-1-carboxamide] | 330 |
